{
  "source": "patent US20230235279A1",
  "about": "“AMNIOTIC-LIKE EPITHELIAL CELL GENERATION” (THE BABRAHAM INSTITUTE, priority 2020, published 2023)",
  "format_in_all_cases": "cell-based, human",
  "key": {"[1]": {"tested_on": "hPSC after 3-5 days of the capacitation", "assay": "Signalling requirement for hALEC formation (single, joint and alternative MAPK, TGFb, BMP inhibitors)", "conditions": "for induction of hALEC by alternative MAPK or TGFb pathway inhibitor: Trametinib 5, 10 or 30 nM, SB431542 10 or 20 uM, LY2109761 1 or 5 uM, LY364947 5, 10 or 20 uM; for efficient formation of 3D bubble-like epithelial structures and upregulation of amnion markers: A8301 only, PD03 only or both (AP)", "experimental": "(§1) FIGS. 3 (A to I). Signalling requirement for hALEC differentiation: FIG. 3(A) depicts experimental outline; naïve hPSC were capacitated in different conditions for 3 days (2uM XAV939 in N2B27 basal medium (“XAV939”), N2B27 basal medium only (“N2B27”), 1 uM A8301 in N2B27 basal medium (“A8301”), or medium E8 for culturing primed hPSCs (“E8”)), and then differentiated to hALEC in AP media. FIG. 3(B) is whole-well view of cells after hALEC induction stained with fluorescently labelled phalloidin. […] FIGS. 3(F) and (G) show images of cells stained with fluorescently labelled phalloidin and qRT-PCR results, respectively, of hALEC differentiated in the presence of alternative MAPK inhibitors (1 uM PD0325901, or 5 nM, 10 nM or 30 nM Trametinib). FIGS. 3(H) and (I) show images of cells stained with fluorescently labelled phalloidin and qRT-PCR results, respectively, for hALEC differentiated in the presence of alternative TGFb pathway inhibitors (1 uM A8301; 10 or 20 uM SB431542; 1 uM or 5 uM LY2109761; 5 uM or 10uM or 20 uM LY364947).\nWe next assessed whether the joint inhibition of the TGFb/Activin/Nodal and MAPK pathways is required for the formation of hALEC. We tested this using hPSC after 3-5 days of the capacitation in independent experiments by supplementing their media with either A8301 only (“A”), PD03 only (“P”), neither of the inhibitors (“none”), or both (“AP”).\nTherefore, hALEC differentiation is induced specifically by inhibition of MAPK and TGFb pathways and not by other effects of PD0325901 and A8301.\nThe formation of cells expressing a subset of amnion markers has been previously reported after treating conventional primed hPSC with the growth factor BMP4 (Shao et al. Nat Mater 2017; Shao et al. Nat Commun 2017; Zheng et al. Nature 2019). However, this finding is at odds with the timing of events that occur during embryo development. In particular, primed hPSC closely resemble late post-implantation epiblast cells just prior to the onset of gastrulation (Nakamura et al. Nature 2016), a developmental stage that occurs in humans at around 11-12dpf (Carnegie stage, CS, 5c), which is several days after the emergence of the amnion in the implanting embryo at 7dpf (CS 5a) (The Virtual Human Embryo Atlas). Therefore, BMP-dependent route of differentiation reported in the aforementioned works can’t explain the mechanism of formation of amnion and amniotic cavity in primate embryos. Nevertheless, we tested whether BMP signalling was required for hALEC differentiation by adding a selective BMP receptor (ALK-2, -3, -6) inhibitor called LDN193189 to the AP-containing media (a combination referred to as “DAP” hereafter)."}, "[2]": {"tested_on": "hPSC at different stages of capacitation", "assay": "Competence window for hALEC differentiation during capacitation (AP or DAP)", "conditions": "hPSC capacitated 8 days, AP medium plus BMP inhibitor", "from_the_text": "FIGS. 4 (A to G). A competence window for hALEC differentiation during the formative transition: FIG. 4(A) depicts the experimental outline. hPSC (HNES1 line) were capacitated in XAV939 and analysed for their ability to form hALEC each day of capacitation, by treatment with AP of DAP for 4 days. […] FIG. 4(D) is a qRT-PCR for markers in hALEC differentiated using AP medium after various length of capacitation. FIG. 4(E) depicts the immunofluorescence for markers (OCT4, CDX2 and E-cadherin) during the time course of hALEC differentiation using naïve and partially capacitated HNES1. […] FIG. 4(G) is the flow cytometry analysis.\nTo identify a window during the progression from naïve to primed pluripotency where hPSC have the competence to form amnion, we systematically tested the ability of hPSC at different stages of capacitation to respond to hALEC-inducing cues (FIG. 4A). In these experiments, hALEC differentiation was induced using two alternative media compositions – AP and DAP – in order to assess whether the requirement for BMP pathway activity is altered this window of competence. […] The efficiency of hALEC formation was evaluated visually by their efficiency to form 3D epithelial spheres (FIGS. 4B and 4C), and markers expression (FIG. 4D). […]"}, "[3]": {"tested_on": "naïve hPSC", "assay": "hALEC differentiation in AP after capacitation in different conditions", "conditions": "3 days capacitation in the named condition, then AP; for hALEC differentiation after capacitation condition: morphology and markers", "experimental": "as §1\nWNT inhibition is beneficial but not essential for the formative transition of hPSC, which is rather guided by their autocrine signalling (Rostovskaya et al. Development 2019). We induced formative transition by the range of conditions: (1) WNT inhibitor XAV939 in N2B27 basal medium; (2) simple withdrawal of the factors (PD0325901, Go6983, XAV939, LIF) for naïve hPSC maintenance from the medium and culturing in basal N2B27 conditions; (3) TGFb inhibitor A8301 in N2B27 basal medium; (4) E8 medium containing TGFb and FGF2 for culturing primed hPSC (Chen et al. Nat Methods 2011); all for 3 days, and then applied AP conditions for differentiation (FIG. 3A). […] Therefore, the ability to form hALEC capable of self-assembly into spheroids, is an intrinsic property of hPSC that is established during capacitation, rather than a property that is acquired in response to exogenous WNT inhibition."}},
  "data": [
    {"smiles": "NC(=O)c1ccc(-c2nc(-c3ccc4c(c3)OCO4)c(-c3ccccn3)[nH]2)cc1", "note": "[SB431542]", "values": [
      {"measurement": "induction of hALEC by alternative MAPK or TGFb pathway inhibitor", "setting": "[1]", "result": "successful induction of hALEC"}
    ]},
    {"smiles": "c1ccc(-c2nn3c(c2-c2ccnc4cc(OCCN5CCOCC5)ccc24)CCC3)nc1", "note": "[LY2109761]", "values": [
      {"measurement": "induction of hALEC by alternative MAPK or TGFb pathway inhibitor", "setting": "[1]", "result": "successful induction of hALEC"}
    ]},
    {"smiles": "O=C(NOC[C@H](O)CO)c1ccc(F)c(F)c1Nc1ccc(I)cc1F", "note": "[PD03]", "values": [
      {"measurement": "efficient formation of 3D bubble-like epithelial structures and upregulation of amnion markers", "setting": "[1]", "result": "Only the cells treated by both inhibitors were able to efficiently form"}
    ]},
    {"smiles": "COc1cc(-c2cc(-c3cccc(O)c3)cnc2N)cc(OC)c1OC", "note": "[K02288]", "values": [
      {"measurement": "extension of the window of competence by alternative BMP inhibitor", "setting": "[2]", "result": "extension of the window of competence was observed"}
    ]},
    {"smiles": "c1ccc(-c2[nH]ncc2-c2ccnc3ccccc23)nc1", "note": "[LY364947]", "values": [
      {"measurement": "induction of hALEC by alternative MAPK or TGFb pathway inhibitor", "setting": "[1]", "result": "successful induction of hALEC"}
    ]},
    {"smiles": "Oc1nc(-c2ccc(C(F)(F)F)cc2)nc2c1CSCC2", "note": "[XAV939]", "values": [
      {"measurement": "efficiency of hALEC differentiation after capacitation condition", "setting": "[3]", "result": "consistently high"},
      {"measurement": "hALEC differentiation after capacitation condition", "setting": "[3]", "result": "successfully differentiated to hALEC"}
    ]},
    {"smiles": "Cc1cccc(-c2nn(C(=S)Nc3ccccc3)cc2-c2ccnc3ccccc23)n1", "note": "[A8301]", "values": [
      {"measurement": "efficiency of hALEC differentiation after capacitation condition", "setting": "[3]", "result": "consistently high"},
      {"measurement": "hALEC differentiation after capacitation condition", "setting": "[3]", "result": "successfully differentiated to hALEC"},
      {"measurement": "efficient formation of 3D bubble-like epithelial structures and upregulation of amnion markers", "setting": "[1]", "result": "Only the cells treated by both inhibitors were able to efficiently form"}
    ]},
    {"smiles": "c1ccc2c(-c3cnn4cc(-c5ccc(N6CCNCC6)cc5)cnc34)ccnc2c1", "note": "[LDN193189]", "values": [
      {"measurement": "effect of blocking BMP signalling on hALEC differentiation", "setting": "[1]; added to AP-containing media (DAP)", "result": "did not interfere with hALEC differentiation"}
    ]}
  ]
}
